Source: US20070117770A1, “Human ribosomal DNA (rDNA) and ribosomal RNA (rRNA) nucleic acids and uses thereof” (Cylene Pharmaceuticals, Inc., priority 2005, published 2007)
“And” between values parts separate entries of the source, which are not always exact repeats. Identical values can stand only once. Like-named read-outs stand apart in the source and are kept apart here.

Key:
MAPK2(m) = MAPK2(m) (Mus musculus, UniProt P63085); assay: Protein kinase inhibition assay; assay type: biochemical; conditions: read-out: percent residual activity of MAPK2(m)
Procedure: (§1) Certain compounds were tested for activity in protein kinase inhibition assays. All substrates were dissolved and diluted to working stocks in de-ionized water, apart from histone H1 (10× working stock in 20 mM MOPS pH 7.0), PDKtide (10× working stock in 50 mM Tris pH 7.0) ATF2 (which is typically stored at a 20× working stock in 50 mM Tris pH 7.5, 150 mM NaCl, 0.1 mM EGTA, 0.03% Brij-35, 50% glycerol, 1 mM benzamidine, 0.2 mM PMSF and 0.1% R-mercaptoethanol), KKLNRTLSFAEPG (SEQ ID NO:203) and RRRLSFAEPG (SEQ ID NO:204) (50 mM HEPES pH 7.4) and GGEEEEYFELVKKKK (SEQ ID NO:205) (20 mM MOPS pH 7.0). All kinases were pre-diluted to a 10× working concentration prior to addition into the assay. The composition of the dilution buffer for each kinase is detailed below.
(§2) In a final reaction volume of 25 μl, MAPK2 (m) (5-10 mU) is incubated with 25 mM Tris pH 7.5, 0.02 mM EGTA, 0.33 mg/ml myelin basic protein, 10 mM MgAcetate and [gamma-33P-ATP] (specific activity approx. 500 cpm/pmol, concentration as required). The reaction is initiated by the addition of the MgATP mix. After incubation for 40 minutes at room temperature, the reaction is stopped by the addition of 5 μl of a 3% phosphoric acid solution. 10 μpl of the reaction is then spotted onto a P30 filtermat and washed three times for 5 minutes in 75 mM phosphoric acid and once in methanol prior to drying and scintillation counting.

Fer(h) = Fer(h) (Homo sapiens, UniProt P16591); assay: Protein kinase inhibition assay; assay type: biochemical; conditions: read-out: percent residual activity of Fer(h)
Procedure: as §1
(§3) In a final reaction volume of 25 μl, Fer (h) (5-10 mU) is incubated with 8 mM MOPS pH 7.0, 0.2 mM EDTA, 1 mM MnCl2, 250 μM KKKSPGEYVNIEFG (SEQ ID NO:207), 10 mM MgAcetate and [gamma-33P-ATP] (specific activity approx. 500 cpm/pmol, concentration as required). The reaction is initiated by the addition of the MgATP mix. After incubation for 40 minutes at room temperature, the reaction is stopped by the addition of 5 μl of a 3% phosphoric acid solution. […]

Abl(h) = Abl(h) (Homo sapiens, UniProt P00519); assay: Protein kinase inhibition assay; assay type: biochemical; conditions: for Mean (Counts - Blanks) / Activity (% Control) / Counts: 2.5 μM
Procedure: as §1
as §2, with “μl, Abl (h)” for “μl, MAPK2 (m)”, “with 8” for “with 25”, “mM MOPS” for “mM Tris”, “pH 7.0, 0.2” for “pH 7.5, 0.02”, “mM EDTA, 50 μM EAIYAAPFAKKK (SEQ ID NO:206),” for “mM EGTA, 0.33 mg/ml myelin basic protein,”, “10 μl” for “10 μpl”

PKCι(h) = PKCι(h) (Homo sapiens, UniProt P41743); assay: Protein kinase inhibition assay; assay type: biochemical; conditions: read-out: percent residual activity of PKCι(h)
Procedure: as §1
as §3, with “PKCι” for “Fer”, “20” for “8”, “HEPES” for “MOPS”, “7.4, 0.03%. Triton X-100, 50” for “7.0, 0.2 mM EDTA, 1 mM MnCl2, 250”, “ERMRPRKRQGSVRRRV” for “KKKSPGEYVNIEFG”, “NO:224),” for “NO:207),”

cells = assay: Apoptosis by Annexin V binding (FACS); assay type: cell-based
Procedure: Apoptosis was assessed by Annexin V binding in flow cytometry fluorescence activated cell sorting (FACS) assays. In such assays, cells were harvested and washed twice in PBS (4° C.) and resuspended at a concentration of 1×10^6 cells/ml in Binding Buffer (10× solution contains 0.1M HEPES/NaOH, pH7.4; […]; 25 mM CaCl2; PharMingen, 66121A). Cells were aliquotted (100 ul) into FACS tubes with Annexin V and/or viability dye. The tube contents were mixed gently and incubated for 15 minutes at room temperature in the dark. Binding Buffer (400 ul) was added to each tube and analyzed immediately by flow cytometry.
Annexin V is available in biotin, FITC (Annexin-V-FITC; PharMingen, 65874X) and PE (Annexin-PE; PharMingen, 65875X) formats. When using Annexin-V-FITC, Propidium Iodide (PI; Sigma, P 4170) was used as the viability marker (5 ul of a 50 ug/ml stock solution). When using Annexin-V-PE, 7-AminoActinomycin D (7-AAD; Sigma, A 9400) was the preferred viability marker (1 ug/ml final concentration) as there is less spectral overlap of PE and 7-AAD than PE and PI. While 7-AAD is not as bright as PI, FITC, PE and PI can be combined effectively. Tubes contained (i) cells alone, (ii) cells+Annexin, (iii) cells+PI (or 7-AAD) or (iv) cells+Annexin+PI (or 7-AAD) in some assays.

[1] = 45 micromolar ATP, single replicates
[2] = 45 micromolar ATP, n = 2, read-out: Mean Activity (% Control)
[3] = 45 micromolar ATP, single replicates, read-out: Activity (% Control)
[4] = read-out: percent residual activity of Abl(h)

Abl(h), sequence (P00519 whole entry): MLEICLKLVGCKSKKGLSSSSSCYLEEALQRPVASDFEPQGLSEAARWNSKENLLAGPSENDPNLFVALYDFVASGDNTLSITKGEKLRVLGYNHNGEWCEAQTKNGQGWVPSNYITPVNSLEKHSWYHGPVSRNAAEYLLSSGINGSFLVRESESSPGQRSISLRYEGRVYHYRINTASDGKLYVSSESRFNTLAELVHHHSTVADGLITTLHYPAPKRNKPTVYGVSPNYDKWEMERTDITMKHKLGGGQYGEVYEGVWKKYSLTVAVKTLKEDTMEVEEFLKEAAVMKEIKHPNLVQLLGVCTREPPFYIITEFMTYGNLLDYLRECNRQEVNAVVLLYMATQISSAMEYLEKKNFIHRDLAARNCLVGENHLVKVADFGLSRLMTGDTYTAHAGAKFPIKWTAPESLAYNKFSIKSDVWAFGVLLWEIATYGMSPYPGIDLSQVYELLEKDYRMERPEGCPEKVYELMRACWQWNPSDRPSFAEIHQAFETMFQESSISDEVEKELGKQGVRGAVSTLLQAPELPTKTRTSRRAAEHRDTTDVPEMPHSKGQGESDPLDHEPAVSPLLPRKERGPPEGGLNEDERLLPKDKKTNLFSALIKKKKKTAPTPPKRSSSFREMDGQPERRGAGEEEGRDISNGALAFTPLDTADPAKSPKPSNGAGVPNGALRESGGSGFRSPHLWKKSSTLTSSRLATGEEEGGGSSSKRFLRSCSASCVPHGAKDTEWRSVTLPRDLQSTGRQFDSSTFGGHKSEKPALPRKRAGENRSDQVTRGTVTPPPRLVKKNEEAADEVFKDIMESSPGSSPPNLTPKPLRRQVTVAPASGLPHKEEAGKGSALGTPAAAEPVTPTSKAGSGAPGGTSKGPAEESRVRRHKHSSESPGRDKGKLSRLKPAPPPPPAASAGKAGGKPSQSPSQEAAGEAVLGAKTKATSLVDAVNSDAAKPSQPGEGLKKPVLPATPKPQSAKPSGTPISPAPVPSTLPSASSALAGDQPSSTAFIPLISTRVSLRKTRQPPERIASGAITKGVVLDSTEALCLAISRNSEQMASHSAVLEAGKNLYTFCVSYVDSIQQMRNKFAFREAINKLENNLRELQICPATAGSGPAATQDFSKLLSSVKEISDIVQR
Fer(h), sequence (P16591 whole entry): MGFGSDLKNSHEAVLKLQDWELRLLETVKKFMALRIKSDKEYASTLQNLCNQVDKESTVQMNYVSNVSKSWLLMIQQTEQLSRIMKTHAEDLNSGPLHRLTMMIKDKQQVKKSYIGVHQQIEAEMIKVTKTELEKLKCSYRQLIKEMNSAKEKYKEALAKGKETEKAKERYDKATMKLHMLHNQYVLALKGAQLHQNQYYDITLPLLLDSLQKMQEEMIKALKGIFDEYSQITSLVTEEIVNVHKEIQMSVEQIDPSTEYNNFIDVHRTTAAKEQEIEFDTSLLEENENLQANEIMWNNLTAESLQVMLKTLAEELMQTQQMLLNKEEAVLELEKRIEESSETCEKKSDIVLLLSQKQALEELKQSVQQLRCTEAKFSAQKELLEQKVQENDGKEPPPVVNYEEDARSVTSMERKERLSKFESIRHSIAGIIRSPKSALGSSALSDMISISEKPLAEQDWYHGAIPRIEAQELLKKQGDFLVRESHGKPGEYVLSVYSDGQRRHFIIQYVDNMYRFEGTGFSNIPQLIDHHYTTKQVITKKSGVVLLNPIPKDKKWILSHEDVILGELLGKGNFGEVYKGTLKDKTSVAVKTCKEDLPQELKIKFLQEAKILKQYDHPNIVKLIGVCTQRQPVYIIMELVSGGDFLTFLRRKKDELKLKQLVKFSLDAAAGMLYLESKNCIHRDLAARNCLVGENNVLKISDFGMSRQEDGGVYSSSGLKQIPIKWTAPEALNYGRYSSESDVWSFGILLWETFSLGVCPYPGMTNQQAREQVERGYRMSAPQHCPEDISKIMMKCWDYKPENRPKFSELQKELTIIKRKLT
MAPK2(m), sequence (P63085 whole entry): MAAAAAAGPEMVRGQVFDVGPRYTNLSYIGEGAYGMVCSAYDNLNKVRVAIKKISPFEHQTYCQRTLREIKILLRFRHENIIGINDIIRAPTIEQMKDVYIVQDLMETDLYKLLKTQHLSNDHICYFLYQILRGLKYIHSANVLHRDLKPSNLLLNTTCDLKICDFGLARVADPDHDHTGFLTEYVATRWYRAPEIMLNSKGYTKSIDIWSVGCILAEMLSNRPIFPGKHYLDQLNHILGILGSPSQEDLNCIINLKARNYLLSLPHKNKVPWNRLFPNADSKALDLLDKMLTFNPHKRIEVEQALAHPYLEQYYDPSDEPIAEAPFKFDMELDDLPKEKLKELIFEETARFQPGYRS
PKCι(h), sequence (P41743 whole entry): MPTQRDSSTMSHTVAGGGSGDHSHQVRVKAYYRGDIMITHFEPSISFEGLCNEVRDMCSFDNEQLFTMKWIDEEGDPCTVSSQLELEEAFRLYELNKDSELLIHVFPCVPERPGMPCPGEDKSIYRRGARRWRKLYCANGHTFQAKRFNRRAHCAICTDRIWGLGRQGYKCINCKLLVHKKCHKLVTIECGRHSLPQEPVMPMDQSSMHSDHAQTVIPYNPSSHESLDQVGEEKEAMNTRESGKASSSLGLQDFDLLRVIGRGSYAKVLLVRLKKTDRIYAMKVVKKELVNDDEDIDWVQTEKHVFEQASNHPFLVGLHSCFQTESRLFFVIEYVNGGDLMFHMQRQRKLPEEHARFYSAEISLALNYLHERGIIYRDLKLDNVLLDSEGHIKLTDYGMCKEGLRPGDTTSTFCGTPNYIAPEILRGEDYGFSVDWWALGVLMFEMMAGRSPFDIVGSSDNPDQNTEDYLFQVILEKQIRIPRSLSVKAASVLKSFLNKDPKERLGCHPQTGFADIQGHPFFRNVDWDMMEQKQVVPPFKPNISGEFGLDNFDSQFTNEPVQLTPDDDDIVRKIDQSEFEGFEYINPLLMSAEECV

remaining activity at 2.5 µM (MAPK2(m)) | remaining activity at 2.5 µM (Fer(h)) | Mean (Counts - Blanks) (Abl(h); 45 micromolar ATP) | Activity (% Control) (Abl(h); [1]) | Counts (Abl(h); [1]) | remaining activity at 2.5 µM (Abl(h); [2]) | remaining activity at 2.5 µM (Abl(h); [3]) | remaining activity at 2.5 µM (Abl(h); [4]) | remaining activity at 2.5 µM (PKCι(h)) | Compound | induction of apoptosis (cells)
95% | 84% | 12522 | 25 % Control | 15236 and 14630 | 26% | 27% | 26% | 72% | CN1CCCC1CCNC(=O)c1cn2c3c(c(N4CCC(c5cnccn5)C4)c(F)cc3c1=O)Oc1cc3ccccc3cc1-2 (centres unmarked) [Compound A-1] | induced apoptosis
102% | 94% | 47944 | 98 % Control | 51051 and 49659 | 100% | 101% | 100% | 95% | CC(=O)N1CCN(c2ccc3c(=O)c(C(=O)NCCN4CCCC4)c4n(C)c5ccccc5n4c3n2)CC1 [Compound B-1] | induced apoptosis following an efficient arrest of cell cycle progression
